According to ChEMBL document CHEMBL4196107, “Antiangiogenic Activity and Chemical Derivatization of the Neurotoxic Acetogenin Annonacin Isolated from Asimina triloba” (J Nat Prod, 2018):
Calls of active or inactive are those of the source. The calls are words filed in the database; no cut-off is given here.

Experiments:
Thoracic aorta [1] = assay: Antiangiogenic activity in Sprague-Dawley rat thoracic aorta ring assessed as inhibition of microvessels outgrowth at 50 uM after 5 days; assay type: functional
Thoracic aorta [2] = assay: Antiangiogenic activity in Sprague-Dawley rat thoracic aorta ring assessed as inhibition of microvessels outgrowth after 5 days; assay type: functional, tissue-based; conditions: 120 h
[3] = Effective permeability of the compound in PBS at 10 uM at pH 7.4 after 16 hrs by PAMPA-BBB assay
[4] = Effective permeability of the compound at pH 7.4 by PAMPA-BBB assay
Thoracic aorta [5] = assay: Antiangiogenic activity in Sprague-Dawley rat thoracic aorta ring assessed as inhibition of microvessels outgrowth at 1 uM after 5 days; assay type: functional, tissue-based

SMILES: CCCCCCCCCCCC[C@@H](N=[N+]=[N-])[C@H]1CC[C@H]([C@@H](CCCC[C@@H](CCCCC[C@H](CC2=C[C@H](C)OC2=O)N=[N+]=[N-])N=[N+]=[N-])N=[N+]=[N-])O1
- inhibition (Thoracic aorta [1]): inactive

SMILES: CCCCCCCCCCCC[C@@H](O)[C@H]1CC[C@H]([C@H](O)CCCC[C@H](O)CCCCC[C@@H](O)CC2=C[C@H](C)OC2=O)O1
- IC50 (Thoracic aorta [2]): 3 µM
- Papp at 16 h, 10 µM [3]: 0.51 ×10⁻⁶ cm/s

SMILES: CN(Cc1cnc2nc(N)nc(N)c2n1)c1ccc(C(=O)N[C@@H](CCC(=O)O)C(=O)O)cc1 [METHOTREXATE]
- Papp at 16 h, 10 µM [3]: 0.007 ×10⁻⁶ cm/s
- Peff [4]: 0.037 ×10⁻⁶ cm/s

SMILES: CC(C)NCC(O)COc1cccc2ccccc12 (centres undefined) [PROPRANOLOL]
- Papp [4]: 12 ×10⁻⁶ cm/s

SMILES: CCCCCCCCCCCC[C@H](N=[N+]=[N-])[C@H]1CC[C@H]([C@H](CCCC[C@H](CCCCC[C@@H](CC2=C[C@H](C)OC2=O)N=[N+]=[N-])N=[N+]=[N-])N=[N+]=[N-])O1
- inhibition at 50 µM (Thoracic aorta [1]; 120 h): 40%

SMILES: CNC(=O)c1cc(Oc2ccc(NC(=O)Nc3ccc(Cl)c(C(F)(F)F)c3)cc2)ccn1
- inhibition (Thoracic aorta [5]): Active

SMILES: CO[C@@H]1[C@H](OC(=O)NC(=O)CCl)CC[C@]2(CO2)[C@H]1[C@@]1(C)O[C@@H]1CC=C(C)C
- inhibition (Thoracic aorta [1]): Active
